According to patent publication US11766434B2, “Pyrimidinone derivatives as CDC7 inhibitors” (Cancer Research Technology Limited, priority 2016, dated 2023):

How the values were obtained:
Cdc7/ASK = Cdc7/ASK (Homo sapiens, UniProt O00311); test: Cdc7 biochemical assay Method 1: 384 well ELISA, MCM2 whole protein substrate, Phospho MCM2 (S53) antibody; design: purchased; conditions: ATP 2 μM, 90 minutes, read-out: Biochemical method 1 (pIC50) (converted)
Outline: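 Commercial Cdc7/ASK phosphorylates plate-bound MCM2 with 2 μM ATP in Tris pH 8.5/MgCl2/DTT, 4% DMSO, 90 min at room temperature. Phospho-MCM2 (S53) detected by antibody ELISA with AP/PNPP absorbance. Inhibition normalised to DMSO and no-enzyme controls; IC50 from curve fit.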

Cdc7/Dbf4 = Cdc7/Dbf4 (Homo sapiens, UniProt O00311); test: Cdc7 biochemical assay Method 2: Cdc7/Dbf4 Enzyme TR-FRET Assay measuring pS40MCM2; conditions: pS40 MCM2 peptide, 1 μM ATP, 25° C., 120 minutes, read-out: Biochemical Method 2 (pIC50) (converted)
Protocol: This protocol describes a method for assaying a compounds' ability to inhibit Cdc7 activity by measuring pS40MCM2 levels in a Cdc7/Dbf4 Enzyme TR-FRET Assay.
2.5 nM Cdc7/Dbf4 was incubated with 100 nM of biotin-labelled peptide 35-TDALTS(pS)PGRDLP in the presence of 1 μM ATP at 25° C. for 120 minutes. The phosphorylation of the peptide was detected using TR-FRET. Anti-Mcm2 (pS40) antibody, Terbium anti-rabbit secondary antibody and Streptavidin-Alexa Fluor488 form the detection system.

Cdc7/ASK, sequence (O00311 whole entry): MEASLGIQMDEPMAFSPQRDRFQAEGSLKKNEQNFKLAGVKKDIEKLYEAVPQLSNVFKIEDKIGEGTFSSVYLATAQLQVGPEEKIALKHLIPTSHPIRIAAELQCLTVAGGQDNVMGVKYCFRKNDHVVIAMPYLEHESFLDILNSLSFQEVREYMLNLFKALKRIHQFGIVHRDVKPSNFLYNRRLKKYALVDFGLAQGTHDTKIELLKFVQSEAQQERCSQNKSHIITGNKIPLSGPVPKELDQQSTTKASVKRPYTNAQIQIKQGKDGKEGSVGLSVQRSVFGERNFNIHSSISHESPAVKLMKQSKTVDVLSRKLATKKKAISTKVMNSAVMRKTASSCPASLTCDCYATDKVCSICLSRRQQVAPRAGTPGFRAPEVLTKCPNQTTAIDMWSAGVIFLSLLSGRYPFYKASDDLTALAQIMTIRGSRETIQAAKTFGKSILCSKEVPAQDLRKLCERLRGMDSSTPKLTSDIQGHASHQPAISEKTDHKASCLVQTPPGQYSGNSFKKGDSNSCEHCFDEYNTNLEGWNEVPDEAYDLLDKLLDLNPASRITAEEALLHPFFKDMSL
Cdc7/ASK, sequence (Q9UBU7 whole entry partner): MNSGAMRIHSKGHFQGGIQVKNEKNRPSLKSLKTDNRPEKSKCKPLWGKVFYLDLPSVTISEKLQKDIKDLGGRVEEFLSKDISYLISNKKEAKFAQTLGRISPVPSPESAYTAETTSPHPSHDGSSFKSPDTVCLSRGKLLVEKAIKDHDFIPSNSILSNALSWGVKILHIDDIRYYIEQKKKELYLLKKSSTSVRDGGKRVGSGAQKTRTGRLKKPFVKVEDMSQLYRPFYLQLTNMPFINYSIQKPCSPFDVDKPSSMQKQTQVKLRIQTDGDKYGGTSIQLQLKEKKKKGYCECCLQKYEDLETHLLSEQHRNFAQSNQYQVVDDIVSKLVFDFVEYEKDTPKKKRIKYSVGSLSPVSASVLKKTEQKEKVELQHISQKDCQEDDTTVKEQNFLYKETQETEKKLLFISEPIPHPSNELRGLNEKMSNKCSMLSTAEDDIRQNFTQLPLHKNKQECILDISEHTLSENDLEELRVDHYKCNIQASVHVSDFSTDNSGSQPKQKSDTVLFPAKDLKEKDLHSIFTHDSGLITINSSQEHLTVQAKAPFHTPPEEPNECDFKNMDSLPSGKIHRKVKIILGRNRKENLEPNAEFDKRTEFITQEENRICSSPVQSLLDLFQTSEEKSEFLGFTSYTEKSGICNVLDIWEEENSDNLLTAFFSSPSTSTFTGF
Cdc7/Dbf4, sequence (O00311 whole entry): as the sequence (O00311 whole entry) above
Cdc7/Dbf4, sequence (Q9UBU7 whole entry partner): as the sequence (Q9UBU7 whole entry partner) above

Compound	IC50 (Cdc7/ASK) [nM]	IC50 (Cdc7/Dbf4) [nM]
O=c1[nH]c(-c2scnc2Cl)nc(C2CCOCC2)c1Cl [Compound 4, 5-chloro-2-(4-chlorothiazol-5-yl)-4-tetrahydropyran-4-yl-1H-pyrimidin-6-one]	1.62	
Cc1ncsc1-c1nc(C2CCOCC2)c(Cl)c(=O)[nH]1 [Compound 6, 5-chloro-2-(4-methylthiazol-5-yl)-4-tetrahydropyran-4-yl-1H-pyrimidin-6-one]	3.8	1.95
O=c1[nH]c(-c2scnc2C(F)(F)F)nc(C2CCOCC2)c1Cl [Compound 14, 5-chloro-4-tetrahydropyran-4-yl-2-[4-(trifluoromethyl)thiazol-5-yl]-1H-pyrimidin-6-one]	1.82	
O=c1[nH]c(-c2cn[nH]c2C(F)(F)F)nc(C2CCOCC2)c1Cl [Compound 17, 5-chloro-4-tetrahydropyran-4-yl-2-[5-(trifluoromethyl)-1H-pyrazol-4-yl]-1H-pyrimidin-6-one]	1.2	1.45

Next, values leading:

IC50 (Cdc7/ASK) [nM]	IC50 (Cdc7/Dbf4) [nM]	Compound
2.09		Cc1ncsc1-c1nc(N2CCN[C@@H](C(F)(F)F)C2)c(Cl)c(=O)[nH]1 [Compound 28, 5-chloro-2-(4-methylthiazol-5-yl)-4-[(3R)-3-(trifluoromethyl)piperazin-1-yl]-1H-pyrimidin-6-one]
	0.832	C[C@@H]1COCCN1c1nc(-c2cn[nH]c2C(F)(F)F)[nH]c(=O)c1Cl [Compound 41, 5-chloro-4-[(3R)-3-methylmorpholin-4-yl]-2-[5-(trifluoromethyl)-1H-pyrazol-4-yl]-1H-pyrimidin-6-one]
	1.82	C[C@@H]1CNCCN1c1nc(-c2cn[nH]c2Cl)[nH]c(=O)c1Cl [Compound 43, 5-chloro-2-(5-chloro-1H-pyrazol-4-yl)-4-[(2R)-2-methylpiperazin-1-yl]-1H-pyrimidin-6-one]
	2.69	C[C@@H]1CNCCN1c1nc(-c2cn[nH]c2C(F)(F)F)[nH]c(=O)c1Cl [Compound 44, 5-chloro-4-[(2R)-2-methylpiperazin-1-yl]-2-[5-(trifluoromethyl)-1H-pyrazol-4-yl]-1H-pyrimidin-6-one]
